Each structure is given as a SMILES string.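 Test compounds were applied to cells in 96-well plates for 48 hours at 5 doses. GI50 is the concentration that inhibits growth by half. TGI is the concentration that stops growth completely.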

In the first assay the test system is NCI-H460 lung. The experiment in a line: inhibition of tumour cell growth, NCI panel, 48 h.
In the case of `Oc1c(C(Nc2cccc3cccnc23)c2ccccc2)ccc2cccnc12` (stereo not given), the TGI was over 100 µM.

The compound `COc1ccc(Br)c(N/N=C2\CCCNC2=O)c1` showed a TGI of over 100 µM.

`COc1cc2c(c(OC)c1OC)-c1ccc(SC)c(=O)cc1C(CO)C2` (stereo not given): the GI50 is under 0.01 µM.

For the compound `Cc1ccc2nc(NC(=O)C(=O)C(C#N)c3nc4ccccc4s3)sc2c1` (stereo not given), the TGI was over 100 µM.

`CC(C)C1CC[C@@H](C)C[C@@]1(O)CC(N)=O` (stereo not given in full) had a TGI of over 100 µM.

Take `O=C([CH-]C(=O)c1ccccc1)c1ccccc1.O=C([CH-]C(=O)c1ccccc1)c1ccccc1.[La+3].[OH-].[OH3+]`: the GI50 was 8.66 µM and the TGI was over 100 µM.

Turning to `CN(CCCn1c2c(c3ccccc3c1=O)C(=O)c1ccccc1-2)CCCn1c2c(c3ccccc3c1=O)C(=O)c1ccccc1-2`, the GI50 is 0.242 µM and the TGI is over 100 µM.

With `CCC[CH2][Sn]1([CH2]CCC)[O]C(=O)c2cccnc2[O]1`, the GI50 is 13.3 µM and the TGI was determined as 26 µM.

`COC1CC(OS(=O)(=O)c2ccc([N+](=O)[O-])cc2)C(OC(=O)c2ccccc2)C(C)O1` (stereo not given) registered a TGI of over 100 µM.

For the compound `CCS(CC)(CC)CC1CCCC2=CCC(P(=O)(c3ccccc3)c3ccccc3)CC21` (stereo not given), the TGI stood at 24.8 µM.

For `CC(=O)OCC1OC(n2cnc(C(N)=S)c2N)C(OC(C)=O)C1OC(C)=O` (stereo not given), the TGI is over 100 µM.

On to `Cn1cc(C(=O)NCCC(=N)N)cc1NC(=O)C1=[N+](C)C=C(NC(=O)c2cccc(C(=O)NC3=CC(C(=O)Nc4cc(C(=O)NCCC(=N)N)cn4C)=[N+](C)C3)c2)C1`, for which the TGI was over 100 µM.

In another assay the test system is DU-145 prostate. The experiment in a line: inhibition of tumour cell growth, NCI panel, 48 h.
`COc1cc([C@@H]2OC[C@@H]3C(c4cc(OC)c5c(c4)OCO5)OC[C@@H]32)cc(OC)c1OC` (stereo not given in full) registered a TGI of over 100 µM.

`CC(=O)OCC1OC(n2cnc(C(N)=S)c2N)C(OC(C)=O)C1OC(C)=O` (stereo not given) came in with a TGI of over 100 µM.

Another assay has as its system TK-10 renal. The experiment in a line: inhibition of tumour cell growth, NCI panel, 48 h.
Take `CCN(CC)c1c(C(=O)/C=C/c2ccc(OC)cc2)c(-c2ccccc2)nn(C)c1=O`: the TGI is 99.9 µM.

`CN1C(=Nc2ccccc2)SC1=Nc1ccccc1` yielded a TGI of over 100 µM.

`Oc1ccccc1/C=C/c1csnn1` returned a TGI of over 100 µM.

Consider `CC(=O)CC(=O)OC1CC(C)CCC1C(C)C` (stereo not given), for which the TGI was over 100 µM.

Take `CP1(=O)CCCCC1`: the TGI was over 100 µM.

Consider `Cc1ccc(S(=O)(=O)OC2CSS(=O)CC2OS(=O)(=O)c2ccc(C)cc2)cc1` (stereo not given), for which the TGI worked out at 28.5 µM.

`O=[N+]([O-])c1cc(C(F)(F)F)cc([N+](=O)[O-])c1CCl`: the TGI was determined as 19.5 µM.

Consider `Nc1ccnc(=O)[nH]1`, for which the TGI is over 100 µM.

Take `COC(=O)/C(C)=C(/CCC1(C)OCCO1)O[Si](C)(C)C`: the TGI was over 100 µM.

Consider `CCOC(=O)N1CCN(C=S)CC1`, for which the TGI is over 100 µM.

`COc1cc([C@@H]2OC[C@@H]3C(c4cc(OC)c5c(c4)OCO5)OC[C@@H]32)cc(OC)c1OC` (stereo not given in full): the TGI is over 100 µM.

In turn, `CCc1cc(C(=O)OC)cn1C(=N)c1ccc(Cl)cc1` had a TGI of over 100 µM.

`Cc1cc(=O)n(-c2ccccc2C)c(C)n1` yielded a TGI of over 100 µM.

`COc1ccc(Br)c(N/N=C2\CCCNC2=O)c1` yielded a TGI of over 100 µM.

As for `COc1cc2c(c(OC)c1OC)-c1ccc(SC)c(=O)cc1C(CO)C2` (stereo not given), the GI50 was over 100 µM and the TGI was over 100 µM.

`Cc1ccc2nc(NC(=O)C(=O)C(C#N)c3nc4ccccc4s3)sc2c1` (stereo not given): the TGI came out at 85.3 µM.

The compound `CC(C)C1CC[C@@H](C)C[C@@]1(O)CC(N)=O` (stereo not given in full) gave a TGI of over 100 µM.

As for `O=C([CH-]C(=O)c1ccccc1)c1ccccc1.O=C([CH-]C(=O)c1ccccc1)c1ccccc1.[La+3].[OH-].[OH3+]`, the GI50 is 32.1 µM and the TGI is over 100 µM.

On to `CCC[CH2][Sn]1([CH2]CCC)[O]C(=O)c2cccnc2[O]1`, for which the GI50 was 2.73 µM and the TGI is 8.23 µM.

For the compound `COC1CC(OS(=O)(=O)c2ccc([N+](=O)[O-])cc2)C(OC(=O)c2ccccc2)C(C)O1` (stereo not given), the TGI is over 100 µM.

Compound `CCOc1ccccc1N1C(=O)C(=O)C(c2nc3ccccc3o2)C(=O)C1=O` registered a TGI of over 100 µM.

Consider `CCS(CC)(CC)CC1CCCC2=CCC(P(=O)(c3ccccc3)c3ccccc3)CC21` (stereo not given), for which the TGI was 27 µM.

`CC(=O)OCC1OC(n2cnc(C(N)=S)c2N)C(OC(C)=O)C1OC(C)=O` (stereo not given) registered a TGI of over 100 µM.

Consider `COc1ccc2n[se]nc2c1`, for which the TGI was over 100 µM.

On to `Cn1cc(C(=O)NCCC(=N)N)cc1NC(=O)C1=[N+](C)C=C(NC(=O)c2cccc(C(=O)NC3=CC(C(=O)Nc4cc(C(=O)NCCC(=N)N)cn4C)=[N+](C)C3)c2)C1`, for which the TGI was over 100 µM.

Another assay concerns NCI-H23 lung. Kind of assay: inhibition of tumour cell growth, NCI panel, 48 h.
As for `CCN(CC)c1c(C(=O)/C=C/c2ccc(OC)cc2)c(-c2ccccc2)nn(C)c1=O`, the TGI worked out at 34.6 µM.

The compound `CN1C(=Nc2ccccc2)SC1=Nc1ccccc1` registered a TGI of over 100 µM.

`Oc1ccccc1/C=C/c1csnn1` returned a TGI of over 100 µM.

On to `CC(=O)CC(=O)OC1CC(C)CCC1C(C)C` (stereo not given), for which the TGI is over 100 µM.

Regarding `CP1(=O)CCCCC1`, the TGI was over 100 µM.

The compound `Cc1ccc(S(=O)(=O)OC2CSS(=O)CC2OS(=O)(=O)c2ccc(C)cc2)cc1` (stereo not given) registered a TGI of 29 µM.

On to `COc1cc2c(cc1C)NC(=O)/C2=C/c1ccccn1`, for which the GI50 is 2.76 µM and the TGI came to 9.1 µM.

With `O=[N+]([O-])c1cc(C(F)(F)F)cc([N+](=O)[O-])c1CCl`, the TGI came out at 5.7 µM.

For the compound `COC(=O)/C(C)=C(/CCC1(C)OCCO1)O[Si](C)(C)C`, the TGI is over 100 µM.

As to `CCOC(=O)N1CCN(C=S)CC1`, the TGI was over 100 µM.

`COc1cc([C@@H]2OC[C@@H]3C(c4cc(OC)c5c(c4)OCO5)OC[C@@H]32)cc(OC)c1OC` (stereo not given in full) gave a TGI of over 100 µM.

Turning to `CCc1cc(C(=O)OC)cn1C(=N)c1ccc(Cl)cc1`, the TGI was over 100 µM.

Compound `Cc1cc(=O)n(-c2ccccc2C)c(C)n1` had a TGI of over 100 µM.

In turn, `Oc1c(C(Nc2cccc3cccnc23)c2ccccc2)ccc2cccnc12` (stereo not given) registered a TGI of over 100 µM.

The compound `COc1ccc(Br)c(N/N=C2\CCCNC2=O)c1` registered a TGI of over 100 µM.

As for `COc1cc2c(c(OC)c1OC)-c1ccc(SC)c(=O)cc1C(CO)C2` (stereo not given), the GI50 was under 0.01 µM and the TGI is under 0.01 µM.

Take `Cc1ccc2nc(NC(=O)C(=O)C(C#N)c3nc4ccccc4s3)sc2c1` (stereo not given): the TGI was found to be 83.9 µM.

`CC(C)C1CC[C@@H](C)C[C@@]1(O)CC(N)=O` (stereo not given in full) yielded a TGI of over 100 µM.
